Measured values as given in patent EP1120414A1, “DISUBSTITUTED MALEIMIDE COMPOUNDS AND MEDICINAL UTILIZATION THEREOF” (Japan Tobacco Inc., priority 1998, dated 2000).
pIC50: −log10 of the molar value. Where two headings read alike, the source gives them in different places.

Assays:
PKC β II = biological target: T1, PKC β II (Homo sapiens, UniProt P05771); assay: PKC enzyme assay (BIOTRAK Protein kinase C enzyme assay system, 32P-ATP phosphorylation of peptide […]); assay type: biochemical; settings: for Ratio α/β: IC50 PKC α / IC50 PKC β II
T1 construct: purchased CALBIOCHEM
From the text: The method for determining the PKC inhibitory activity of the compound of the present invention is explained in the following. Inasmuch as PKCβII is present in greater number in intravascular cells than PKCβI, PKCβII was mainly used here to test the enzyme activity.
(§1) As the reagent for enzyme assay, BIOTRAK Protein kinase C enzyme assay system (hereinafter the system, Amersham), and as the PKC enzyme standard product, Protein Kinase C, Human Recombinant (CALBIOCHEM) were purchased and used in the assay. A substrate mixture was prepared by mixing calcium buffer (12 mM calcium acetate, 50 mM Tris/HCl pH 7.5, 0.05% (w/v) sodium azide), Lipid (0.3 mg/ml La-phosphatidyl-L-serine, […] phorbol 12-myristate 13-acetate, 50 mM Tris/HCl pH 7.5, 0.05% (w/v) sodium azide), peptide buffer (900 µM peptide […]), 50 mM Tris/HCl pH 7.5, 0.05% (w/v) sodium azide), DTT buffer (30 mM dithiothreitol, 50 mM Tris/HCl pH 7.5, 0.05% (w/v) sodium azide), and magnesium ATP buffer (1.2 mM ATP, […] pH 7.4, 72 mM magnesium chloride) all attached to the system in a ratio of 1:1:1:1:0.8 and adding [ y -32P]ATP (Amersham, cat. […] The PKC enzyme standard product was diluted with an assay buffer (10 mM Hepes pH 7.4, 0.01% Triton X-100) to a concentration of 400 ng/ml and used as the enzyme solution. The substrate mixture and a test substance (diluted to the final concentration of 1 nM-10 µM with dimethyl sulfoxide (DMSO)) were mixed at a ratio of 20:1. The enzyme solution was added in the amount equivalent to the substrate mixture and mixed, which was followed by incubation at 37°C for 15 minutes. The reaction terminator (300 mM orthophosphoric acid containing carmosine red) attached to the system was added in the amount equivalent to the substrate mixture to end the reaction, and the reaction mixture was spotted on a phosphocellulose paper (Whatman, P-81), washed twice with 75 mM orthophosphoric acid and assayed for radioactivity by BAS2000 (Fuji film).
(§2) The ratio of the radioactivity of the addition of the test substance to the addition of DMSO was determined, and IC50 was calculated from inhibition at each concentration.

PKC α = biological target: T2, PKC α (Homo sapiens, UniProt P17252); assay: as above; assay type: biochemical
T2 construct: purchased CALBIOCHEM
Experimental: as §1, §2

[1] = Protein Kinase C, Human Recombinant, test substance 1 nM-10 µM, 37°C, 15 minutes, read-out: Inhibition of PKC activity IC50 PKC β II
[2] = Protein Kinase C, Human Recombinant, test substance 1 nM-10 µM, 37°C, 15 minutes, read-out: Inhibition of PKC activity IC50 PKC α
[3] = read-out: Inhibition of PKC activity IC50 PKC β II, Protein Kinase C, Human Recombinant, test substance 1 nM-10 µM, 37°C, 15 minutes
[4] = read-out: Inhibition of PKC activity IC50 PKC α, Protein Kinase C, Human Recombinant, test substance 1 nM-10 µM, 37°C, 15 minutes

T1 sequence (P05771 other isoform, or with tags, fused parts or gaps): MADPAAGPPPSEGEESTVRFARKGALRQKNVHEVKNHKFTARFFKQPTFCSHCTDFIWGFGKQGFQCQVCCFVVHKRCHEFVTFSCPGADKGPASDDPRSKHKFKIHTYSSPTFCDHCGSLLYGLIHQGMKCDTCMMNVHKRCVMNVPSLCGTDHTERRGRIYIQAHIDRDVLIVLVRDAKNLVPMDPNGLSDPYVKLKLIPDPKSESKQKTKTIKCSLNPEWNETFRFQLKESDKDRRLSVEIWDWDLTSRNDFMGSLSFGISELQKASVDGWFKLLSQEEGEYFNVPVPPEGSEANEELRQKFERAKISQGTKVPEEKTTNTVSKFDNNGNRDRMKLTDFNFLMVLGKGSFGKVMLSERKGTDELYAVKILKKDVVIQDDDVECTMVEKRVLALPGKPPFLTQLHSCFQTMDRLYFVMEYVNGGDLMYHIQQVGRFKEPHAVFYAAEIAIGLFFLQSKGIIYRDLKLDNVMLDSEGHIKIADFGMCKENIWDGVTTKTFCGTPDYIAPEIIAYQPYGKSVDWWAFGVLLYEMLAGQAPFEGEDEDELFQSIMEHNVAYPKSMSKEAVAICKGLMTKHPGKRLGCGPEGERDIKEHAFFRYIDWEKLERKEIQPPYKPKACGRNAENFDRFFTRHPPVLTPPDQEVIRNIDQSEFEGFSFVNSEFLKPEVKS

| Molecule | Ratio α/β (PKC β II) | pIC50 (PKC β II; [1]) | pIC50 (PKC α; [2]) | pIC50 (PKC β II; [3]) | pIC50 (PKC α; [4]) | pIC50 (PKC β II) | pIC50 (PKC α) |
| --- | --- | --- | --- | --- | --- | --- | --- |
| O=C1NC(=O)C(c2cn(CCn3ccnc3)c3ccccc23)=C1Nc1ccccc1 [Example 2-62, 3-[1-(2-imidazol-1-ylethyl)-1H-indol-3-yl]-4-(phenylamino)-1H-pyrrole-2,5-dione] | 55 | 7.09 | 5.35 |  |  |  |  |
| CNCC1Cc2c(C3=C(Nc4ccc(F)cc4)C(=O)NC3=O)c3ccccc3n2C1 (centres unmarked) [Example 4-32] | 60 |  |  | 8.40 | 6.64 |  |  |
| O=C1NC(=O)C(c2cn(CC3CCNCC3)c3ccccc23)=C1Nc1ccccc1 [Example 3-2, 3-(phenylamino)-4-[1-(4-piperidylmethyl)-1H-indol-3-yl]-1H-pyrrole-2,5-dione] | 19 | 7.80 | 6.53 |  |  |  |  |
| CCN(CC)C[C@H]1CCc2c(C3=C(Nc4ccccc4)C(=O)NC3=O)c3ccccc3n2C1 [Example 4-54] | 57 |  |  | 8.00 | 6.24 |  |  |
| O=C1NC(=O)C(c2cn(CCCn3ccnc3)c3ccccc23)=C1Nc1ccccc1 [Example 2-36, 3-[1-(3-imidazol-1-ylpropyl)-1H-indol-3-yl]-4-(phenylamino)-1H-pyrrole-2,5-dione] |  | 8.30 | 6.48 |  |  |  |  |
| O=C1NC(=O)C(c2cn(CCCO)c3ccccc23)=C1Nc1ccccc1 [Example 2-1, 3-[1-(3-hydroxypropyl)-1H-indol-3-yl]-4-(phenylamino)-1H-pyrrole-2,5-dione] | 54 | 7.52 | 5.79 |  |  |  |  |
| COc1ccc(NC2=C(c3cn(CCCn4ccnc4)c4ccccc34)C(=O)NC2=O)cc1 [Example 2-65, 3-[1-(3-imidazol-1-ylpropyl)-1H-indol-3-yl]-4-[(4-metholyphenyl)amino]-1H-pyrrole-2,5-dione] | 47 | 8.00 | 6.33 |  |  |  |  |
| O=C1NC(=O)C(c2cn(CCCN3CCCC3)c3ccccc23)=C1Nc1ccccc1 [Example 2-22, 3-(phenylamino)-4-(1-(3-pyrrolidin-1-ylpropyl)-1H-indol-3-yl]-1H-pyrrole-2,5-dione] | 37 | 7.74 | 6.18 |  |  |  |  |
| O=C1NC(=O)C(c2c3n(c4ccccc24)CCC(CO)C3)=C1Nc1ccccc1 (centres unmarked) [Example 4-1, 3-[8-hydroxymethyl-6,7,8,9-tetrahydropyrido[1,2-a]indol-10-yl]-4-(phenylamino)-1H-pyrrole-2,5-dione] | 61 | 7.85 | 6.07 |  |  |  |  |
| Cc1nccn1CCCn1cc(C2=C(Nc3ccccc3)C(=O)NC2=O)c2ccccc21 [Example 2-61, 3-[1-{3-(2-methylimidazol-1-yl)propyl}-1H-indol-3-yl]-4-(phenylamino)-1H-pyrrole-2,5-dione] | 45 | 8.05 | 6.40 |  |  |  |  |
| CCN(C)CC1CCc2c(C3=C(Nc4ccccc4)C(=O)NC3=O)c3ccccc3n2C1 (centres unmarked) [Example 4-51] | 101 |  |  |  |  | 8.15 | 6.15 |
| O=C1NC(=O)C(c2c[nH]c3ccccc23)=C1Nc1ccccc1 [Example 1-2, 3-(1H-indol-3-yl)-4-(phenylamino)-1H-pyrrole-2,5-dione] |  | 6.65 | 5.14 |  |  |  |  |
| Cc1nccn1CCn1cc(C2=C(Nc3ccccc3)C(=O)NC2=O)c2ccccc21 [Example 2-63, 3-[1-{2-(2-methyl-imidazol-1-yl)ethyl}-1H-indol-3-yl]-4-(phenylamino)-1H-pyrrole-2,5-dione] | 29 | 6.61 | 5.15 |  |  |  |  |
| O=C1NC(=O)C(c2cn(CCCO)c3ccccc23)=C1Nc1cccc(Cl)c1 [Example 2-3, 3-[(3-chlorophenyl)amino]-4-[1-(3-hydroxypropyl)-1H-indol-3-yl]-1H-pyrrole-2,5-dione] | 85 | 7.34 | 5.41 |  |  |  |  |
| COC[C@H]1Cc2c(C3=C(Nc4ccc(F)cc4)C(=O)NC3=O)c3ccccc3n2C1 [Example 4-57] | 77 |  |  | 7.08 | 5.19 |  |  |
| 3-[(3-chlorophenyl)amino]-4-[1-{3-(4-hydroxymethyl-imidazol-1-yl)propyl}-1H-indol-3-yl]-1H-pyrrole-2,5-dione and 3-[(3-chlorophenyl)amino]-4-[1-{3-(5-hydroxymethyl-imidazol-1-yl)propyl}-1H-indol-3-yl]-1H-pyrrole-2,5-dione [Example 2-60] | 48 | 7.80 | 6.12 |  |  |  |  |
| COC[C@H]1Cc2c(C3=C(Nc4ccccc4)C(=O)NC3=O)c3ccccc3n2C1 [Example 4-56] | 131 |  |  |  |  | 7.40 | 5.28 |
| Cc1c(C2=C(Nc3ccccc3)C(=O)NC2=O)c2ccccc2n1CCCn1ccnc1 [Example 2-69, 3-[1-(3-imidazol-1-ylpropyl)-2-methyl-1H-indol-3-yl]-4-(phenylamino)-1H-pyrrole-2,5-dione] | 117 | 7.70 | 5.63 |  |  |  |  |
| O=C1NC(=O)C(c2cn(CCCN3CCC(N4CCCCC4)CC3)c3ccccc23)=C1Nc1ccccc1 [Example 2-31, 3-(phenylamino)-4-[1-{3-(4-piperidinopiperidino)propyl}-1H-indol-3-yl]-1H-pyrrole-2,5-dione] | 59 | 7.92 | 6.15 |  |  |  |  |
| O=C1NC(=O)C(c2cn(CCCN3CCC(CO)CC3)c3ccccc23)=C1Nc1ccccc1 [Example 2-50, 3-[1-{3-[4-(hydroxymethyl)piperidino]propyl}-1H-indol-3-yl]-4-(phenylamino)-1H-pyrrole-2,5-dione] | 47 | 7.72 | 6.05 |  |  |  |  |
| O=C1NC(=O)C(c2cn(CCCN3CCN(CCO)CC3)c3ccccc23)=C1Nc1ccccc1 [Example 2-32, 3-[1-{3-[4-(2-hydroxyethyl)piperazin-1-yl]propyl}-1H-indol-3-yl]-4-(phenylamino)-1H-pyrrole-2,5-dione] | 57 | 7.72 | 5.97 |  |  |  |  |
| CCN(CC)CCCn1cc(C2=C(Nc3ccccc3)C(=O)NC2=O)c2ccccc21 [Example 2-13, 3-[1-(3-diethylaminopropyl)-1H-indol-3-yl]-4-(phenylamino)-1H-pyrrole-2,5-dione] | 60 | 7.68 | 5.90 |  |  |  |  |
| Cc1nccn1CCCn1cc(C2=C(Nc3cccc(Cl)c3)C(=O)NC2=O)c2ccccc21 [Example 2-42, 3-[(3-chlorophenyl)amino]-4-[1-{3-(2-methylimidazol-1-yl)propyl}-1H-indol-3-yl]-1H-pyrrole-2,5-dione] | 45 | 8.00 | 6.34 |  |  |  |  |
| O=C1NC(=O)C(c2cn(CCCn3cncn3)c3ccccc23)=C1Nc1ccccc1 [Example 2-38, 3-(phenylamino)-4-[1-{3-(1,2,4-triazol-1-yl)propyl}-1H-indol-3-yl]-1H-pyrrole-2,5-dione] | 25 | 7.40 | < 6.00 |  |  |  |  |
| Cc1c(C2=C(Nc3ccccc3)C(=O)NC2=O)c2ccccc2n1CCCN(C)C [Example 2-54, 3-[1-(3-dimethylaminopropyl)-2-methyl-1H-indol-3-yl]-4-(phenylamino)-1H-pyrrole-2,5-dione] | 109 | 7.21 | 5.18 |  |  |  |  |
| NC(=O)c1cccc(NC2=C(c3c4n(c5ccccc35)C[C@H](CO)CC4)C(=O)NC2=O)c1 [Example 4-46] | 112 |  |  | 7.05 | < 5.00 |  |  |
| Cc1cncn1CCCn1cc(C2=C(Nc3cccc(Cl)c3)C(=O)NC2=O)c2ccccc21 [Example 2-59, 3-[(3-chlorophenyl)amino]-4-[1-{3-(5-methyl-imidazol-1-yl)propyl}-1H-indol-3-yl]-1H-pyrrole-2,5-dione] | 45 | 8.10 | 6.45 |  |  |  |  |
| CCN(C)C[C@@H]1CCc2c(C3=C(Nc4ccc5c(c4)OCO5)C(=O)NC3=O)c3ccccc3n2C1 [Example 4-49] | 82 |  |  | 7.48 | 5.57 |  |  |
| O=C1NC(=O)C(c2cn(CCCN3CCCCCC3)c3ccccc23)=C1Nc1ccccc1 [Example 2-23, 3-[1-(3-azacycloheptan-1-ylpropyl)-1H-indol-3-yl]-4-(phenylamino)-1H-pyrrole-2,5-dione] |  |  |  |  |  | 8.00 |  |
